Source: US8247211B2, “Glycopeptide antibiotics” (American Cyanamid Company, priority 2001, dated 2012)

How the values were obtained:
Experiment in all cases: In vitro antibacterial evaluation: minimum inhibitory concentration (MIC), broth dilution method
Assay type in all cases: cell-based
Details in all cases: 18 hours at 35° C.
Escherichia coli = system: Escherichia coli
Summary of the method: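 NCCLS M7-A2 broth dilution; Muller-Hinton II […]; 5×10^5 CFU/mL; 64-0.06 μg/mL. MIC = lowest concentration with no growth.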

Streptococcus sp. = system: Streptococcus sp.
Summary of the method: (§1)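 Inoculum: 5×10^5 CFU/mL. Range: 64-0.06 μg/mL. Medium: Muller-Hinton II […]; NCCLS M7-A2 broth dilution. Endpoint: lowest concentration inhibiting growth. Strains include methicillin-, penicillin- and/or vancomycin-resistant clinical isolates.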

Staphylococcus sp. = system: Staphylococcus sp.
Summary of the method: as §1

Enterococcus sp. = system: Enterococcus sp.
Summary of the method: as §1

Tri-N-[(phenylmethoxy)carbonyl]-cyclo[glycyl-β-methylphenylalanyltyrosyl-3-(2-iminoimidazolidin-4-yl)seryl-3-β-(2,3:4,6-di-O-isopropylidenehexopyranosyl)-2-iminoimidazolidin-4-yl]seryl-O-(tert-butyldimethylsilyl)seryl] [Example 249]
MIC Escherichia coli (ATCC 25922) (Escherichia coli; Escherichia coli (ATCC 25922)): 128 µg/mL
MIC Escherichia coli (GC 4559) (Escherichia coli; Escherichia coli (GC 4559)): 128 µg/mL
MIC Escherichia coli (GC 4560) (Escherichia coli; Escherichia coli (GC 4560)): 128 µg/mL
MIC Streptococcus agalactiae (GC 4564) (Streptococcus sp.; Streptococcus agalactiae (GC 4564)): 128 µg/mL
MIC Streptococcus pneumoniae (ATCC 6301) (Streptococcus sp.; Streptococcus pneumoniae (ATCC 6301)): 64 µg/mL
MIC Streptococcus pneumoniae (GC 1894) (Streptococcus sp.; Streptococcus pneumoniae (GC 1894)): 32 µg/mL
MIC Streptococcus pneumoniae (GC 4565) (Streptococcus sp.; Streptococcus pneumoniae (GC 4565)): 64 µg/mL
MIC Streptococcus pyogenes (GC 4563) (Streptococcus sp.; Streptococcus pyogenes (GC 4563)): 128 µg/mL
MIC Streptococcus pneumoniae (ATCC 6301) (Streptococcus sp.; broth dilution, strain ATCC 6301): 64 µg/mL
MIC Streptococcus pneumoniae (GC 1894) (Streptococcus sp.; broth dilution, strain GC 1894): 32 µg/mL
MIC Streptococcus pyogenes (GC 4563) (Streptococcus sp.; broth dilution, strain GC 4563): 128 µg/mL
MIC Streptococcus agalactiae (GC 4564) (Streptococcus sp.; broth dilution, strain GC 4564): 128 µg/mL
MIC Streptococcus pneumoniae (GC 4565) (Streptococcus sp.; broth dilution, strain GC 4565): 64 µg/mL
MIC Coagulase Negative Staphylococcus (GC 4547) (Staphylococcus sp.; Coagulase Negative Staphylococcus (GC 4547)): 64 µg/mL
MIC Coagulase Negative Staphylococcus (GC 4548) (Staphylococcus sp.; Coagulase Negative Staphylococcus (GC 4548)): 128 µg/mL
MIC Coagulase Negative Staphylococcus (GC 4549) (Staphylococcus sp.; Coagulase Negative Staphylococcus (GC 4549)): 128 µg/mL
MIC Coagulase Negative Staphylococcus (GC 4551) (Staphylococcus sp.; Coagulase Negative Staphylococcus (GC 4551)): 64 µg/mL
MIC Coagulase Negative Staphylococcus (GC 6257) (Staphylococcus sp.; Coagulase Negative Staphylococcus (GC 6257)): 128 µg/mL
MIC Staphylococcus aureus (ATCC 29213) (Staphylococcus sp.; Staphylococcus aureus (ATCC 29213)): 128 µg/mL
MIC Staphylococcus aureus (GC 1131) (Staphylococcus sp.; Staphylococcus aureus (GC 1131)): 128 µg/mL
MIC Staphylococcus aureus (GC 3051) (Staphylococcus sp.; Staphylococcus aureus (GC 3051)): 128 µg/mL
MIC Staphylococcus aureus (GC 3053) (Staphylococcus sp.; Staphylococcus aureus (GC 3053)): 128 µg/mL
MIC Staphylococcus aureus (GC 4541) (Staphylococcus sp.; Staphylococcus aureus (GC 4541)): 128 µg/mL
MIC Staphylococcus aureus (GC 4542) (Staphylococcus sp.; Staphylococcus aureus (GC 4542)): 64 µg/mL
MIC Staphylococcus aureus (GC 4544) (Staphylococcus sp.; Staphylococcus aureus (GC 4544)): 64 µg/mL
MIC Staphylococcus aureus (GC 4545) (Staphylococcus sp.; Staphylococcus aureus (GC 4545)): 128 µg/mL
MIC Staphylococcus aureus-SMITH (GC 4543) (Staphylococcus sp.; Staphylococcus aureus-SMITH (GC 4543)): 128 µg/mL
MIC Staphylococcus haemolyticus (GC 4546) (Staphylococcus sp.; Staphylococcus haemolyticus (GC 4546)): 128 µg/mL
MIC Staphylococcus aureus (ATCC 29213) (Staphylococcus sp.; broth dilution, strain ATCC 29213): 128 µg/mL
MIC Staphylococcus aureus (GC 1131) (Staphylococcus sp.; broth dilution, strain GC 1131): 128 µg/mL
MIC Staphylococcus aureus (GC 3051) (Staphylococcus sp.; broth dilution, strain GC 3051): 128 µg/mL
MIC Staphylococcus aureus (GC 3053) (Staphylococcus sp.; broth dilution, strain GC 3053): 128 µg/mL
MIC Staphylococcus aureus (GC 4541) (Staphylococcus sp.; broth dilution, strain GC 4541): 128 µg/mL
MIC Staphylococcus aureus (GC 4542) (Staphylococcus sp.; broth dilution, strain GC 4542): 64 µg/mL
MIC Staphylococcus aureus-SMITH (GC 4543) (Staphylococcus sp.; broth dilution, strain GC 4543): 128 µg/mL
MIC Staphylococcus aureus (GC 4544) (Staphylococcus sp.; broth dilution, strain GC 4544): 64 µg/mL
MIC Staphylococcus aureus (GC 4545) (Staphylococcus sp.; broth dilution, strain GC 4545): 128 µg/mL
MIC Staphylococcus haemolyticus (GC 4546) (Staphylococcus sp.; broth dilution, strain GC 4546): 128 µg/mL
MIC Coagulase Negative Staphylococcus (GC 4547) (Staphylococcus sp.; broth dilution, strain GC 4547): 64 µg/mL
MIC Coagulase Negative Staphylococcus (GC 4548) (Staphylococcus sp.; broth dilution, strain GC 4548): 128 µg/mL
MIC Coagulase Negative Staphylococcus (GC 4549) (Staphylococcus sp.; broth dilution, strain GC 4549): 128 µg/mL
MIC Coagulase Negative Staphylococcus (GC 4551) (Staphylococcus sp.; broth dilution, strain GC 4551): 64 µg/mL
MIC Coagulase Negative Staphylococcus (GC 6257) (Staphylococcus sp.; broth dilution, strain GC 6257): 128 µg/mL
MIC Enterococcus avium (GC 4558) (Enterococcus sp.; Enterococcus avium (GC 4558)): 32 µg/mL
MIC Enterococcus faecalis (ATCC 29212) (Enterococcus sp.; Enterococcus faecalis (ATCC 29212)): 16 µg/mL
MIC Enterococcus faecalis (GC 2242) (Enterococcus sp.; Enterococcus faecalis (GC 2242)): 32 µg/mL
MIC Enterococcus faecalis (GC 2691) (Enterococcus sp.; Enterococcus faecalis (GC 2691)): 128 µg/mL
MIC Enterococcus faecalis (GC 3059) (Enterococcus sp.; Enterococcus faecalis (GC 3059)): 128 µg/mL
MIC Enterococcus faecalis (GC 4552) (Enterococcus sp.; Enterococcus faecalis (GC 4552)): 64 µg/mL
MIC Enterococcus faecalis (GC 4553) (Enterococcus sp.; Enterococcus faecalis (GC 4553)): 64 µg/mL
MIC Enterococcus faecalis (GC 4554) (Enterococcus sp.; Enterococcus faecalis (GC 4554)): 128 µg/mL
MIC Enterococcus faecalis (GC 6189) (Enterococcus sp.; Enterococcus faecalis (GC 6189)): 64 µg/mL
MIC Enterococcus faecium (GC 2243) (Enterococcus sp.; Enterococcus faecium (GC 2243)): 64 µg/mL
MIC Enterococcus faecium (GC 4556) (Enterococcus sp.; Enterococcus faecium (GC 4556)): 32 µg/mL
MIC Enterococcus faecium (GC 4557) (Enterococcus sp.; Enterococcus faecium (GC 4557)): 64 µg/mL
MIC Enterococcus faecalis (ATCC 29212) (Enterococcus sp.; broth dilution, strain ATCC 29212): 16 µg/mL
MIC Enterococcus faecalis (GC 2242) (Enterococcus sp.; broth dilution, strain GC 2242): 32 µg/mL
MIC Enterococcus faecium (GC 2243) (Enterococcus sp.; broth dilution, strain GC 2243): 64 µg/mL
MIC Enterococcus faecalis (GC 2691) (Enterococcus sp.; broth dilution, strain GC 2691): 128 µg/mL
MIC Enterococcus faecalis (GC 3059) (Enterococcus sp.; broth dilution, strain GC 3059): 128 µg/mL
MIC Enterococcus faecalis (GC 4552) (Enterococcus sp.; broth dilution, strain GC 4552): 64 µg/mL
MIC Enterococcus faecalis (GC 4553) (Enterococcus sp.; broth dilution, strain GC 4553): 64 µg/mL
MIC Enterococcus faecalis (GC 4554) (Enterococcus sp.; broth dilution, strain GC 4554): 128 µg/mL
MIC Enterococcus faecium (GC 4556) (Enterococcus sp.; broth dilution, strain GC 4556): 32 µg/mL
MIC Enterococcus faecium (GC 4557) (Enterococcus sp.; broth dilution, strain GC 4557): 64 µg/mL
MIC Enterococcus avium (GC 4558) (Enterococcus sp.; broth dilution, strain GC 4558): 32 µg/mL
MIC Enterococcus faecalis (GC 6189) (Enterococcus sp.; broth dilution, strain GC 6189): 64 µg/mL
